Active and inactive are the calls of the source. How the calls were made is not given here.
Test system: rodent carcinogenicity bioassays, tumor incidence
Experiment: CCRIS carcinogenicity studies
Details: Dose: 0
Procedure, shortened: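 NCI-built, expert-reviewed records of carcinogenicity and related test outcomes (mutagenicity, tumor promotion/inhibition) compiled from published and report sources, historical span 1985-2011, not updated.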

O=C(O)C(Cl)(Cl)Cl
carcinogen call (Species: MOUSE, Strain/Sex: B6C3F1/FEMALE, Route: INTRAPERITONEAL, 1000 NMOL TOTAL DOSE, 1/3 AND 2/3 OF THE TOTAL DOSE ADMINISTERED AT 8 AND 15 DAYS OF AGE RESPECTIVELY, ANIMALS TERMIN): inactive; negative | carcinogen call (Species: MOUSE, Strain/Sex: B6C3F1/FEMALE, Route: INTRAPERITONEAL, 2000 NMOL TOTAL DOSE, 3/7 AND 4/7 OF THE TOTAL DOSE ADMINISTERED AT 8 AND 15 DAYS OF AGE RESPECTIVELY, ANIMALS TERMIN): inactive; negative | carcinogen call (Species: MOUSE, Strain/Sex: B6C3F1/FEMALE, Route: ORAL, 2, 6.67, 20 MMOL/L IN DRINKING WATER FOR 360 D (STUDY DURATION: 360 D), 2, 6.67, 20 MMOL/L IN DRINKING WATER FOR 360 D (STUDY DURATION: 360 D), Tumor Site: Type of Lesion: LIVER: CARCINOMA): active; positive | carcinogen call (Species: MOUSE, Strain/Sex: B6C3F1/FEMALE, Route: ORAL, 2, 6.67, 20 MMOL/L IN DRINKING WATER FOR 576 D (STUDY DURATION: 576 D), 2, 6.67, 20 MMOL/L IN DRINKING WATER FOR 576 D (STUDY DURATION: 576 D), Tumor Site: Type of Lesion: LIVER: ADENOMA, CARCINOMA): active; positive | carcinogen call (Species: MOUSE, Strain/Sex: B6C3F1/MALE, Route: INTRAPERITONEAL, 1000 NMOL TOTAL DOSE, 1/3 AND 2/3 OF THE TOTAL DOSE ADMINISTERED AT 8 AND 15 DAYS OF AGE RESPECTIVELY, ANIMALS TERMIN): inactive; negative | carcinogen call (Species: MOUSE, Strain/Sex: B6C3F1/MALE, Route: INTRAPERITONEAL, 2000 NMOL TOTAL DOSE, 3/7 AND 4/7 OF THE TOTAL DOSE ADMINISTERED AT 8 AND 15 DAYS OF AGE RESPECTIVELY, ANIMALS TERMIN): inactive; negative | carcinogen call (Species: MOUSE, Strain/Sex: B6C3F1/MALE, Route: ORAL, 1, 2 G/L IN DRINKING WATER FOR 52 WK (STUDY DURATION: 52 WK), 1, 2 G/L IN DRINKING WATER FOR 52 WK (STUDY DURATION: 52 WK), Tumor Site: Type of Lesion: LIVER: ADENOMA OR HEPATOCELLULAR CARCINOMA): active; positive | carcinogen call (Species: MOUSE, Strain/Sex: B6C3F1/MALE, Route: ORAL, 5 G/L (0; 31 MILLIMOLAR) IN DRINKING WATER FOR 61 WK (STUDY DURATION: 61 WK), 5 G/L (0; 31 MILLIMOLAR) IN DRINKING WATER FOR 61 WK (STUDY DURATION: 61 WK), Tumor Site: Type of Lesion: LIVER: CARCINOMA): active; positive | carcinogen call (Species: RAT, Strain/Sex: F344/MALE, Route: ORAL, 0.05, 0.5, 5 G/L IN DRINKING WATER FOR 104 WK (STUDY DURATION: 104 WK), 0.05, 0.5, 5 G/L IN DRINKING WATER FOR 104 WK (STUDY DURATION: 104 WK)): inactive; negative

O=C(O)COc1ccc(Cl)cc1Cl (tested in a mixture with another compound)
carcinogen call (Species: MOUSE, Strain/Sex: B6C3F1/FEMALE, Route: DERMAL, 100, 200 MG/KG BW IN ETHANOL 5/WK FOR 104 WK (STUDY DURATION: 104 WK), 100, 200 MG/KG BW IN ETHANOL 5/WK FOR 104 WK (STUDY DURATION: 104 WK), Tumor Site: Type of Lesion: LIVER: HEPATOCELLULAR ADENOMA, HEPATOCELLULAR CARCINOMA, HEPATOCELLULAR ADENOMA OR CARCINOMA OR HEPATOBLASTOMA): active; positive | carcinogen call (Species: MOUSE, Strain/Sex: B6C3F1/MALE, Route: DERMAL, 100, 200 MG/KG BW IN ETHANOL 5/WK FOR 104 WK (STUDY DURATION: 104 WK), 100, 200 MG/KG BW IN ETHANOL 5/WK FOR 104 WK (STUDY DURATION: 104 WK), Tumor Site: Type of Lesion: KIDNEY: RENAL TUBULE ADENOMA, RENAL TUBULE ADENOMA OR CARCINOMA, LIVER: HEPATOCELLULAR ADENOMA, HEPATOCELLULAR CARCINOMA): active; positive | carcinogen call (Species: RAT, Strain/Sex: F344/FEMALE, Route: DERMAL, 50, 100 MG/KG BW IN ETHANOL 5/WK FOR 104 WK (STUDY DURATION: 104 WK), 50, 100 MG/KG BW IN ETHANOL 5/WK FOR 104 WK (STUDY DURATION: 104 WK), Tumor Site: Type of Lesion: KIDNEY: RENAL TUBULE ADENOMA OR CARCINOMA): equivocal | carcinogen call (Species: RAT, Strain/Sex: F344/MALE, Route: DERMAL, 50, 100 MG/KG BW IN ETHANOL 5/WK FOR 104 WK (STUDY DURATION: 104 WK), 50, 100 MG/KG BW IN ETHANOL 5/WK FOR 104 WK (STUDY DURATION: 104 WK)): inactive; negative

CCCCCCN(N=O)C(N)=O
carcinogen call (Species: RAT, Strain/Sex: F344/FEMALE, Route: GAVAGE, 17.5 MG/ML (TOTAL DOSE 0; 2 MMOL) IN 2 ML ETHYL ACETATE AND CORN OIL (1:2) 2/WK FOR 50 WK (STUDY DURATION: LIFETIME), 17.5 MG/ML (TOTAL DOSE 0; 2 MMOL) IN 2 ML ETHYL ACETATE AND CORN OIL (1:2) 2/WK FOR 50 WK (STUDY DURATION: LIFETIME), Tumor Site: Type of Lesion: FORESTOMACH: SQUAMOUS CELL CARCINOMA, LUNG: TUMOR, MAMMARY GLAND: TUMOR, UTERUS: TUMOR, Tumor Site: Type of Lesion: FORESTOMACH: SQUAMOUS CELL CARCINOMA, LUNG: TUMOR, MAMMARY GLAND: TUMOR, UTERUS: TUMOR): active; positive | carcinogen call (Species: RAT, Strain/Sex: F344/FEMALE, Route: GAVAGE, 17.5 MG/ML IN 0.2 ML ETHYL ACETATE AND CORN OIL 2/WK FOR 50 WK (STUDY DURATION: LIFESPAN), Tumor Site: Type of Lesion: FORESTOMACH: TUMOR, LUNG: TUMOR, MAMMARY GLAND: TUMOR, UTERUS: TUMOR, Tumor Site: Type of Lesion: FORESTOMACH: TUMOR, LUNG: TUMOR, MAMMARY GLAND: TUMOR, UTERUS: TUMOR): active; positive | carcinogen call (Species: RAT, Strain/Sex: F344/MALE, Route: GAVAGE, 17.5 MG/ML (TOTAL DOSE 0; 2 MMOL) IN 2 ML ETHYL ACETATE AND CORN OIL (1:2) 2/WK FOR 50 WK (STUDY DURATION: LIFETIME), 17.5 MG/ML (TOTAL DOSE 0; 2 MMOL) IN 2 ML ETHYL ACETATE AND CORN OIL (1:2) 2/WK FOR 50 WK (STUDY DURATION: LIFETIME), Tumor Site: Type of Lesion: FORESTOMACH: SQUAMOUS CELL CARCINOMA, LUNG: TUMOR, BODY CAVITY: MESOTHELIOMA, Tumor Site: Type of Lesion: FORESTOMACH: SQUAMOUS CELL CARCINOMA, LUNG: TUMOR, BODY CAVITY: MESOTHELIOMA): active; positive | carcinogen call (Species: RAT, Strain/Sex: F344/MALE, Route: GAVAGE, 17.5 MG/ML IN 0.2 ML ETHYL ACETATE AND CORN OIL 2/WK FOR 50 WK (STUDY DURATION: LIFESPAN), Tumor Site: Type of Lesion: FORESTOMACH: TUMOR, LUNG: TUMOR, PERITONEUM: MESOTHELIOMA, SKIN: TUMOR, Tumor Site: Type of Lesion: FORESTOMACH: TUMOR, LUNG: TUMOR, PERITONEUM: MESOTHELIOMA, SKIN: TUMOR): active; positive

— PubChem BioAssay AID1259411 (Chemical Carcinogenesis Research Information System (CCRIS), 2018)
